ChEMBL document CHEMBL1201862, “PubChem BioAssay data set” (2004)
Activity calls are given as the source filed them.

Tests used:
Nonstructural protein 1 = Nonstructural protein 1 (Influenza A virus, UniProt Q194T2); type: functional, Influenza A virus (A/California/07/2009(H1N1))
[1] = biological target: Heat shock protein HSP 90-alpha (Homo sapiens, UniProt P07900); type: functional, organism-based
Paired box protein Pax-8 = Paired box protein Pax-8 (Homo sapiens, UniProt Q06710); experiment: PAX8 transcriptional activity inhibition in RMG-I – RMG-I cells, luciferase, cherry-pick, dose response (AID 687027); type: functional, cell-based;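 note: luciferase reporter driven by Pax8 target thyroperoxidase promoter measured by SteadyGlo luminescence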
[2] = biological target: T1, Calpain-2 catalytic subunit (Sus scrofa, UniProt P43367); experiment: m-calpain protease blockers, concentration series – biochemical, fluorogenic peptide substrate, dose response (AID 1420); type: functional
T1 sequence (P43367 whole entry): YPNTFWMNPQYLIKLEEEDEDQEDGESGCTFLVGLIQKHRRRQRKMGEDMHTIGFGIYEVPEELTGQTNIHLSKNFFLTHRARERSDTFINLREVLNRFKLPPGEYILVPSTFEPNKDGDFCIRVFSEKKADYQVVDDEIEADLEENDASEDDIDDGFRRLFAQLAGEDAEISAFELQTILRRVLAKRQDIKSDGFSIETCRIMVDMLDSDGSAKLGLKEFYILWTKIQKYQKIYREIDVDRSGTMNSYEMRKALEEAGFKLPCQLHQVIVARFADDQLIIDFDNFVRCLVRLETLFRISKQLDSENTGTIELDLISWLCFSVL

[3] = NIH-3T3 fibroblast cytotoxicity, dose response, cytotoxicity control, cell-based, fluorescence, Alamar Blue, secondary assay (AID 2327); type: functional;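 note: NIH-3T3 mouse fibroblasts cultured with fluconazole at 8 µg/mL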
[4] = fluconazole-exposed Candida albicans growth modulators – fluorescence, retest, confirmation (AID 2467); type: functional, cell-based
Beta-galactosidase = Beta-galactosidase (Escherichia coli, UniProt Q8VNN2); experiment: Dose response counterscreen for EBI2 assay utilizing the enzyme, b-galactosidase.; type: functional
[5] = Luminescence Cell-Based Dose Retest to Confirm Inhibitors of Cancer Stem Cells. [Related pubchem assays (depositor defined):AID2717, AID2721]; type: functional; conditions: Homo sapiens
[6] = biological target: Eukaryotic translation initiation factor 4E (Mus musculus, UniProt P63073); experiment: blockers of eIF4G binding by eIF4E – biochemical, TR-FRET, dose response (AID 855); type: functional;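 note: potency for disrupting eIF4E binding to eIF4GI seen as loss of FRET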
[7] = Trypanosoma cruzi growth suppression in host cells – NIH3T3 host cells, beta-gal luminescence, confirmation (AID 2044); type: functional, cell-based;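 note: intracellular parasites grown in NIH/3T3 mouse fibroblasts as host cells; luminescent beta-galactosidase reporter signal from transgenic T. cruzi replicating inside host cells; inhibitors lower the luminescence signal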
cells [8] = type: functional, cell-based
[9] = NIH3T3 cell viability loss – ATP luminescence, mouse fibroblasts, counter-screen, dose response (AID 2010); type: functional, cell-based;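 note: cells exposed to compound for about 90 hours before reading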
Protein RecA = biological target: T2, Protein RecA (Mycobacterium tuberculosis, UniProt P9WHJ3); experiment: Fluorescence Cell-Free Homogeneous Dose Retest to Identify Inhibitors of RecA-Intein Splicing Activity. [Related pubchem assays (depositor defined):AID2097, AID2223, AID489010, AID492950]; type: functional
T2 sequence (P9WHJ3 whole entry): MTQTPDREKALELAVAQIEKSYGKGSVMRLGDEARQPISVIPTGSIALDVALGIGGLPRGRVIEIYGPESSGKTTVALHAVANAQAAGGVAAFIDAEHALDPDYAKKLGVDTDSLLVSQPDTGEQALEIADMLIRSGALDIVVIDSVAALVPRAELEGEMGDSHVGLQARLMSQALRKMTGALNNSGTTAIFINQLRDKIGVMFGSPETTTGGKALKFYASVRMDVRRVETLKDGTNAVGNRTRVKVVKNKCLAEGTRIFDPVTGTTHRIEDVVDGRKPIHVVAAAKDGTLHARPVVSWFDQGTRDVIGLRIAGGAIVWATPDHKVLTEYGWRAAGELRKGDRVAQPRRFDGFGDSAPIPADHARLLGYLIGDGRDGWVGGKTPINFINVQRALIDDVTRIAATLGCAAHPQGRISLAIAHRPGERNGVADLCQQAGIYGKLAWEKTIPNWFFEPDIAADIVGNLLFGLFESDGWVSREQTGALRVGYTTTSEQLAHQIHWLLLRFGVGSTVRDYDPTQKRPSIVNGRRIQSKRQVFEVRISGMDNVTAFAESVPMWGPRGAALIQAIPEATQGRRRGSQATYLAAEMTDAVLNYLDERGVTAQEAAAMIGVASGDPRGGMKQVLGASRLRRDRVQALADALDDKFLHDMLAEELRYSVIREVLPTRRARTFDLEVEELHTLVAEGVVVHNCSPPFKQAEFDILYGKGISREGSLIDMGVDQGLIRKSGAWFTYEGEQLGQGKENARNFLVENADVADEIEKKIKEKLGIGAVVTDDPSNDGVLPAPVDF

cells [10] = type: functional, cell-based; remark: listed apart in the source
INS1 = experiment: INS-1E survival protection against cytokine death – cell-based, luminescence, retest, dose response (AID 449756); type: functional; conditions: Rattus norvegicus;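 note: cell death triggered by IL-1 beta plus TNF-alpha plus IFN-gamma mixture; protective hits raise ATP signal compared with cytokine alone wells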
[11] = biological target: T3, Replicative DNA helicase DnaB (Mycobacterium tuberculosis, UniProt P9WMR3); experiment: DnaB intein splicing inhibitors, dose response, biochemical, cell-free fluorescence (AID 449749); type: functional
T3 sequence (P9WMR3 whole entry): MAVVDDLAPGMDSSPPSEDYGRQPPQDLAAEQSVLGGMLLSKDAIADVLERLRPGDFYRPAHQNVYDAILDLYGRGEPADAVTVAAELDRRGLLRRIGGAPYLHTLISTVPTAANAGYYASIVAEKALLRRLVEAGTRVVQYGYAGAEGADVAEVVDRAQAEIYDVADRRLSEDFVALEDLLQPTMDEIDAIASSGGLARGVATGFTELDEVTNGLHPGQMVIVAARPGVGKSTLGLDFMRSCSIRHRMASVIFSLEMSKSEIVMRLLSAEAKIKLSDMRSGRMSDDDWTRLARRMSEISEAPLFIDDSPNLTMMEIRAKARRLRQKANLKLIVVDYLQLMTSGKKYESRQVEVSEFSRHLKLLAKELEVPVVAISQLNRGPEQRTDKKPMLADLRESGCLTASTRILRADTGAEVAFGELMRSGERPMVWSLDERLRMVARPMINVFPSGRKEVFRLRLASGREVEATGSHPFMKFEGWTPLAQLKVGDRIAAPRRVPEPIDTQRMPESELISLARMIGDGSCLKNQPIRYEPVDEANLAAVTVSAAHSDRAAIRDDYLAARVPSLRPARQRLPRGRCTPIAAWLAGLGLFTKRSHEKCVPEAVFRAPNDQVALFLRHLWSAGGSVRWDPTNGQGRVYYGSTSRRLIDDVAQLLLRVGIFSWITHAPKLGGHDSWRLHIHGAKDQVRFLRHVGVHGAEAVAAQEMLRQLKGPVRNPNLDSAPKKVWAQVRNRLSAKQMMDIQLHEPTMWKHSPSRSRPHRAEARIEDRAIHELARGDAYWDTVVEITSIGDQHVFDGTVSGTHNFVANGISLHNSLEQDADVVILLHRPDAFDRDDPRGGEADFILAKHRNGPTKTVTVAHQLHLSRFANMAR

[12] = non-specific 3'UTR reporter inhibition in Clone20-Shn3RL – cell-based, Renilla luciferase, cherry-picked, counter-screen for Shn3 inhibitor project, dose response (AID 624133); type: functional
[13] = Luminescence Cell-Based Dose Response HTS to Identify Inhibitors of 5'UTR Stem-Loop Driven Prion Protein mRNA Translation in H4 Neuroglioblastoma Cells. [Related pubchem assays: 1827 (Project Summary), 1813 (Primary HTS)]; type: functional
[14] = alpha-synuclein stem-loop luciferase translation blockers – H4 neuroglioma cells, luminescence, confirmation (AID 1988); type: functional, cell-based
[15] = reduction of Shn3 3'UTR-driven luciferase in osteoblasts – cell-based, Clone20 osteoblasts, firefly luciferase, cherry-picked, dose response (AID 624132); type: functional;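 note: firefly luciferase luminescence from reporter carrying the Shn3 3'UTR in osteoblasts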
[16] = luciferase reporter signal suppression in cells – H4 neuroglioma cells, luminescence, dose response (AID 1990); type: functional, cell-based
[17] = loss of viability in HepG2 cells – cell-based, CellTiter-Glo, cherry-picked, cytotoxicity control for Shn3 inhibitor project, dose response (AID 624134); type: functional
[18] = blockers of HIV-1 envelope-mediated cell-cell fusion – cherry-pick, dose response (AID 652057); type: functional, cell-based
[19] = blockers of HIV-1 ZM109 envelope-driven cell-cell fusion – HeLa effector, CEM target cells, luciferase, cherry-pick, dose response (AID 652058); type: functional, cell-based;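 note: luciferase signal from HIV-1 Env mediated cell-cell fusion of effector and target cells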
[20] = HIV-1 AD8 envelope cell-cell fusion blockers – cherry-pick, dose response (AID 652062); type: functional, cell-based;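 note: luciferase signal from cell-cell fusion driven by HIV-1 clade B AD8 Env; potency is for inhibitors of fusion seen as a drop in luminescence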
[21] = biological target: T4, Ubiquitin-conjugating enzyme E2 N (Homo sapiens, UniProt P61088); type: functional;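 note: Dose-response confirmation in a TR-FRET assay detecting UBC13-driven polyubiquitin chain formation, inhibition measured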
T4 sequence (P61088 whole entry): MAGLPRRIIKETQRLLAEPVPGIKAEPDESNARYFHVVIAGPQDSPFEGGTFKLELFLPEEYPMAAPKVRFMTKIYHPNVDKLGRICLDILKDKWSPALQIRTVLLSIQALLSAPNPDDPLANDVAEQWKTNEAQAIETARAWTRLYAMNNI

[22] = biological target: Induced myeloid leukemia cell differentiation protein Mcl-1 (Homo sapiens, UniProt Q07820); type: functional
Induced myeloid leukemia cell differentiation protein Mcl-1, sequence (Q07820 whole entry): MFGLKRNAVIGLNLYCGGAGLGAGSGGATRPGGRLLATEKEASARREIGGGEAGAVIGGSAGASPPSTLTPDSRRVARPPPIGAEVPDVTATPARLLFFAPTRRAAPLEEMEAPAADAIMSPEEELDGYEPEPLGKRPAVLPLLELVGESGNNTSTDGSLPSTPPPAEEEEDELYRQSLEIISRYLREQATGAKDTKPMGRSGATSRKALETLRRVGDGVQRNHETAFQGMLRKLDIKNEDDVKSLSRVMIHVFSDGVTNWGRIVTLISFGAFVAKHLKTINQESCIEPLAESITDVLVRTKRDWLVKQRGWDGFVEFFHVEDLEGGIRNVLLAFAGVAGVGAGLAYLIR

Eukaryotic translation initiation factor 4E, sequence (P63073 whole entry): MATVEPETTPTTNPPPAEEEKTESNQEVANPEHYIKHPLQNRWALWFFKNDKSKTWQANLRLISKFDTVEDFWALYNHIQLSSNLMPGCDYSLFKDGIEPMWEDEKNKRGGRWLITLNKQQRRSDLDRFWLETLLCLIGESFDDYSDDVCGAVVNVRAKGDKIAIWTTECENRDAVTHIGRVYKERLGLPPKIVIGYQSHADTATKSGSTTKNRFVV
Nonstructural protein 1, sequence (Q194T2 whole entry): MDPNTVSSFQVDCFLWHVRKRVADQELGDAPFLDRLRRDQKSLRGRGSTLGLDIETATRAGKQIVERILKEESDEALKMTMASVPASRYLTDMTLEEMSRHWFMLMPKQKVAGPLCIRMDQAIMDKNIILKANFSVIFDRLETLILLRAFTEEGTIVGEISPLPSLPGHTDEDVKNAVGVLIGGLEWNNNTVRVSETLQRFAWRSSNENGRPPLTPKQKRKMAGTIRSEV
Beta-galactosidase, sequence (Q8VNN2 whole entry): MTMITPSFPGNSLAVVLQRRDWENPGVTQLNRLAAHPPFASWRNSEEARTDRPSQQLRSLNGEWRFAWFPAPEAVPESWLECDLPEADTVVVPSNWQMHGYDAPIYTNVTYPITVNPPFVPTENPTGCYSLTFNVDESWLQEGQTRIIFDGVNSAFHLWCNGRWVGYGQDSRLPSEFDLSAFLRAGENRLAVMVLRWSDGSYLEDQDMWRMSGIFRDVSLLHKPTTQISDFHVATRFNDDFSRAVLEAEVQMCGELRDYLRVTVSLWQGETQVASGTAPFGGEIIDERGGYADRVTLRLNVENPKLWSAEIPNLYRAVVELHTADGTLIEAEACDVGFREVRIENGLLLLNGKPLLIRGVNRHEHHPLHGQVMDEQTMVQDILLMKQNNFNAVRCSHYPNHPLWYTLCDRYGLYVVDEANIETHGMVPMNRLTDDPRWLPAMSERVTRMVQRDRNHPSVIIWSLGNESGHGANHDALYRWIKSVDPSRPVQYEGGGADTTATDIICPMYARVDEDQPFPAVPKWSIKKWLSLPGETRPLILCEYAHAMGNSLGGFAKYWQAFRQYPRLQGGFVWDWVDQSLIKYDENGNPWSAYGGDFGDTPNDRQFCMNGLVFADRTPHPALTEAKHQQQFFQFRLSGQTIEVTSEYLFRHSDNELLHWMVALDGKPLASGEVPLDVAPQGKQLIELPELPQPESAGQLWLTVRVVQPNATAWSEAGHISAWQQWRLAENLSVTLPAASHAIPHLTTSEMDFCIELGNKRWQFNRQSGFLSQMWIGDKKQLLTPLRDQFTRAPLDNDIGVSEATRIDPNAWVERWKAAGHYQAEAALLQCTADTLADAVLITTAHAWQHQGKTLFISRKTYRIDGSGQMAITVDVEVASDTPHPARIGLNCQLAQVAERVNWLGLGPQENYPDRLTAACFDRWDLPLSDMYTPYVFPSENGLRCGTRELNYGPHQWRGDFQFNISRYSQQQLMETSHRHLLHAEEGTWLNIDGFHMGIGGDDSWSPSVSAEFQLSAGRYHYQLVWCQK
Paired box protein Pax-8, sequence (Q06710 whole entry): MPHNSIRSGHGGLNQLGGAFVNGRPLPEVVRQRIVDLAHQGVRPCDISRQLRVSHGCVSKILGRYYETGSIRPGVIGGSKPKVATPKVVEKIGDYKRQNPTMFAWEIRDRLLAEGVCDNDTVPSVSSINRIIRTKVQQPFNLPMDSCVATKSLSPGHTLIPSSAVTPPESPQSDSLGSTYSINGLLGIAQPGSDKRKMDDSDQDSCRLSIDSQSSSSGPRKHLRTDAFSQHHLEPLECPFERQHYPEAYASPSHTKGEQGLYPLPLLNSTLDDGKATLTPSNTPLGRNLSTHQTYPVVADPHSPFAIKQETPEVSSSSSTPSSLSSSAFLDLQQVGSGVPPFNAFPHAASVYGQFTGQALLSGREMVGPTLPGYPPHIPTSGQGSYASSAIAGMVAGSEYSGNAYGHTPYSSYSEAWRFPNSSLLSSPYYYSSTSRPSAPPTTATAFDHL

CC(=NNC(=S)N1CCC1)c1ccccn1
IC50 (Nonstructural protein 1): 2.09 µM (active) | AC50 [1]: 1.58 µM (active) | AC50 (Paired box protein Pax-8): < 0.26 µM (active)

CCCCCCSc1nnc(-c2cnn(-c3ccccc3)c2-n2cccc2)n1C
IC50 [2]: 7.59 µM (not active)

CCCC(=O)n1nc(NCc2ccc(OC)cc2)nc1NCc1ccc(OC)cc1
IC50 [2]: < 0.4 µM (not active)

COCCNC(=O)CCCn1c(=O)c2cc(OC)c(OC)cc2n(CC(=O)NCCC2=CCCCC2)c1=O
EC50 [3]: > 160 µM (inactive) | EC50 [4]: 3.16 µM (active)

O=C(/C=C/c1ccccc1)N1CCN(c2c(Cl)cccc2[N+](=O)[O-])CC1
IC50 (Beta-galactosidase): > 80 µM (inactive)

COc1ccc(NC(=O)c2c(N)no[n+]2[O-])cc1
EC50 [3]: 1.6 µM (active) | EC50 [4]: 2.19 µM (active) | AC50 [5]: 0.754 µM (active)

CCOC(=O)C1CCN(C(=O)/C=C/c2ccc(OC)cc2)CC1
IC50 (Beta-galactosidase): > 80 µM (inactive)

Cc1ccc2oc(=O)c3cnn(CC(=O)N(CCC(C)C)Cc4ccco4)c3c2c1
IC50 (Beta-galactosidase): > 80 µM (inactive)

CC1CCN(c2nc3ccccc3n2CC(=O)c2ccccc2)CC1
IC50 [2]: > 50 µM (not active)

O=S(=O)(Cc1ccc(Cl)cc1)N1CCN(Cc2ccccc2)CC1
EC50 [3]: > 160 µM (inactive) | EC50 [4]: > 38 µM (not active)

NC(=O)C1CCN(C2CC(=O)N(c3ccc(F)c(Cl)c3)C2=O)CC1 (configuration not stated)
AC50 [1]: 3.04 µM (active)

N#C/C(=C/c1ccc(O)cc1)C(=O)NCc1ccc(Cl)cc1
AC50 [1]: 3.08 µM (active)

Cc1cc(C)n2nc(C(=O)NCc3ccccc3)cc2n1
IC50 [6]: > 64 µM (inactive)

O=C1CCN(Cc2ccccc2)C=C1c1ccc(Br)cc1
IC50 (Beta-galactosidase): > 80 µM (inactive)

COc1ccc2c(n1)Sc1nc3ccccc3nc1N2
AC50 [1]: 1.96 µM (active)

CC1=CC2=NC(=O)CC(C)(C(=O)N(CC(=O)NC3CCCC3)c3cc(C)cc(C)c3)N2C=C1 (configuration not stated)
IC50 [6]: 50 µM (inactive)

O=C(COc1ccc(Br)cc1)N1CCN(S(=O)(=O)/C=C/c2ccccc2)CC1
IC50 (Beta-galactosidase): > 80 µM (inactive)

COc1ccc(OC)c(NC(=O)C(=O)/C=C(\O)c2cc(OC)ccc2OC)c1
EC50 [3]: 29.9 µM (inconclusive) | EC50 [4]: > 38 µM (not active)

O=C(Cn1nc(-c2ccc3c(c2)OCCO3)ccc1=O)Nc1cccc(NC(=O)c2ccccn2)c1
IC50 [2]: > 50 µM (not active)

CCN(CC)C1CC(=O)N(c2cccc(Cl)c2)C1=O (configuration not stated)
AC50 [1]: 2.21 µM (active)

CC1CC1C(=O)OCC(=O)Nc1ccccc1Oc1ccccc1 (configuration not stated)
IC50 [2]: 33.3 µM (not active)

O=c1c2c3c(sc2ncn1/N=C/c1ccc([N+](=O)[O-])o1)CCCC3
AC50 [1]: 0.637 µM (active) | AC50 [5]: 4.45 µM (active)

Cc1nc2ccccc2nc1N/N=C/c1ccc(O)cc1O
IC50 (Nonstructural protein 1): 14.1 µM (active) | EC50 [7]: 2.05 µM (active) | EC50 (cells [8]): 12.1 µM (active) | EC50 [9]: 8.31 µM (active) | EC50 (Protein RecA): > 380 µM (inconclusive) | EC50 (cells [10]): > 350 µM (not active) | AC50 (INS1): 0.882 µM (active) | AC50 [11]: > 380 µM (inactive)

OCc1ccc(O)c2ncccc12
IC50 (Nonstructural protein 1): 10.5 µM (active) | EC50 [3]: > 150 µM (inactive) | AC50 [12]: 2.24 µM (active) | EC50 [13]: 2.95 µM (active) | EC50 [14]: 1.2 µM (active) | EC50 [4]: > 38 µM (not active) | AC50 [15]: 1.66 µM (active) | AC50 (INS1): 3.37 µM (active) | EC50 [16]: 0.712 µM (active) | AC50 [17]: 5.94 µM (active)

CC(C)=CCc1c(O)ccc(C2COc3c(CC=C(C)C)c(O)cc(O)c3C2=O)c1O (configuration not stated)
AC50 [1]: 15.9 µM (active)

COc1ccc(-c2cc(C3CCN(c4cc(Cl)nc(N)n4)CC3)[nH]n2)cc1
AC50 [18]: 42.9 µM (active) | AC50 [19]: 0.295 µM (active) | AC50 [20]: 26.4 µM (active) | IC50 [21]: > 20 µM (inactive)

Cc1ccc(S(=O)(=O)N(C(=O)c2ccncc2)c2ccc(OC(=O)c3ccncc3)cc2)cc1
AC50 [1]: 1.23 µM (active)

Cc1cccc(N2CCN(C(=O)c3cc4c(=O)[nH]c5ccccc5c4n3C)CC2)c1C
IC50 (Beta-galactosidase): > 80 µM (inactive)

CCOc1cc(C(=O)Nc2ccc3c4c(cccc24)C(=O)N3CC)cc(OCC)c1OCC
IC50 [6]: > 64 µM (inactive)

Cc1cccc(NC(=O)NCc2ccc3[nH]c(C)cc3c2)c1
IC50 [2]: 7.26 µM (not active)

O=C(COc1ccc(Cl)cc1)N1CCN(C(=O)c2cccc(F)c2)CC1
IC50 (Beta-galactosidase): > 80 µM (inactive)

COc1ccccc1N1CCN(C(=O)c2cc3c(C)nc4ccccc4c3o2)CC1
IC50 (Beta-galactosidase): > 80 µM (inactive)

CNC(=S)N1N=C(c2ccc(OC)cc2)CC1c1ccc(N(C)C)cc1 (configuration not stated)
IC50 (Beta-galactosidase): > 80 µM (inactive)

N#Cc1c(NC(=O)c2cccc(S(=O)(=O)Nc3ccc(C(=O)O)cc3)c2)sc2c1CCCC2
IC50 [2]: 13.7 µM (not active) | IC50 [22]: 6.52 µM (active)
